In patent US9302999B2, “Substituted triazoles as herbicides” (E. I. DU PONT DE NEMOURS AND COMPANY, priority 2012, dated 2016):

Legend:
[1] = tested on: crabgrass, large (large crabgrass, Digitaria sanguinalis); assay: Test A pre-/postemergence: crabgrass, large; assay type: in vivo
Procedure, shortened: (§1)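 Compounds, formulated with surfactant in non-phytotoxic solvent, were applied as a directed soil spray preemergence and as postemergence sprays to 2–10 cm, one- to two-leaf seedlings grown in loam soil blended with sand; visual injury, 0–100, assessed ~10 days post-treatment against untreated controls.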

[2] = tested on: ragweed (common ragweed, Ambrosia elation); assay: Test C pre-/postemergence: ragweed; assay type: in vivo
Procedure, shortened: (§2)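 Preemergence on seeds in loam/sand, postemergence on 2–18 cm (1–4-leaf) plants in peat-based medium; compounds in non-phytotoxic solvent with surfactant. After 13–15 days in greenhouse, visual rating versus controls, 0 (no effect) to 100 (complete control).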

[3] = tested on: ducksalad (Heteranthera limosa); assay: Test B flooded paddy: ducksalad; assay type: in vivo; details: Flood; 250 g ai/ha; applied to paddy water at 2-leaf stage; visually evaluated after 13 to 15 days
Procedure, shortened: (§3)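 Flooded-pot test: compound dosed into 3 cm of standing water above soil when plants had two leaves. Visual control ratings (0–100) versus untreated plants after 13–15 d.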

[4] = tested on: morningglory (Ipomoea spp.); assay: Test A pre-/postemergence: morningglory; assay type: in vivo
Procedure, shortened: as §1

[5] = tested on: foxtail, giant (giant foxtail, Setaria faberii); assay: Test A pre-/postemergence: foxtail, giant; assay type: in vivo
Procedure, shortened: as §1

[6] = tested on: velvetleaf (Abutilon theophrasti); assay: Test C pre-/postemergence: velvetleaf; assay type: in vivo
Procedure, shortened: as §2

[7] = tested on: nutsedge, yellow (yellow nutsedge, Cyperus esculentus); assay: Test C pre-/postemergence: nutsedge, yellow; assay type: in vivo
Procedure, shortened: as §2

[8] = tested on: soybean (Glycine max); assay: Test C pre-/postemergence: soybean; assay type: in vivo
Procedure, shortened: as §2

[9] = tested on: kochia (Kochia scoparia); assay: Test C pre-/postemergence: kochia; assay type: in vivo; details: Postemergence
Procedure, shortened: as §2

[10] = tested on: sedge, umbrella (small-flower umbrella sedge Cyperus difformis); assay: Test B flooded paddy: sedge, umbrella; assay type: in vivo; details: Flood; 250 g ai/ha; applied to paddy water at 2-leaf stage; visually evaluated after 13 to 15 days
Procedure, shortened: as §3

[11] = tested on: Barnyardgrass; assay: Test C preemergence: barnyardgrass; assay type: in vivo, Echinochloa crus-galli
[12] = Postemergence, 125 g ai/ha, 0 to 100 scale, 0 is no effect, 100 is complete control
[13] = Postemergence, 500 g ai/ha, 0 to 100 scale, 0 is no effect, 100 is complete control
[14] = Preemergence, 125 g ai/ha, 0 to 100 scale where 0 is no effect and 100 is complete control
[15] = Preemergence, 500 g ai/ha, 0 to 100 scale (0 no effect, 100 complete control)
[16] = Postemergence, 31 g ai/ha, scale 0 to 100 (0 no effect, 100 complete control)
[17] = Postemergence, 62 g ai/ha, scale 0 to 100 (0 no effect, 100 complete control)
[18] = Postemergence, 125 g ai/ha, scale 0 to 100, 0 no effect, 100 complete control
[19] = Postemergence, 250 g ai/ha, scale 0 to 100 (0 no effect, 100 complete control)
[20] = Preemergence, 31 g ai/ha, scale 0 (no effect) to 100 (complete control)
[21] = Preemergence, 62 g ai/ha, scale of 0 to 100, 0 is no effect, 100 is complete control
[22] = Preemergence, 125 g ai/ha, scale 0 to 100, 0 no effect, 100 complete control
[23] = Preemergence, 250 g ai/ha, scale 0 to 100, 0 no effect, 100 complete control
[24] = 31 g ai/ha, scale 0 to 100 (0 no effect, 100 complete control)
[25] = 62 g ai/ha, scale 0 to 100 (0 no effect, 100 complete control)
[26] = 125 g ai/ha, scale 0 to 100, 0 no effect, 100 complete control
[27] = 250 g ai/ha, scale 0 to 100 (0 no effect, 100 complete control)
[28] = 31 g ai/ha, scale 0 (no effect) to 100 (complete control)
[29] = 62 g ai/ha, scale of 0 to 100, 0 is no effect, 100 is complete control

CCCc1nn(-c2ccc(F)cc2)nc1Oc1ccnc(C(F)(F)F)c1 [Compound 168]
Plant response rating, Crabgrass, Large [1, 12]: 90 | Crabgrass, Large plant response rating [1, 13]: 90 | Plant response rating, Crabgrass, Large [1, 14]: 100 | Plant response rating, Crabgrass, Large [1, 15]: 100 | Plant response rating, Ragweed [2, 16]: 65 | Plant response rating, Ragweed [2, 17]: 65 | Plant response rating, Ragweed [2, 18]: 65 | Plant response rating, Ragweed [2, 19]: 80 | Plant response rating, Ragweed [2, 20]: 10 | Plant response rating, Ragweed [2, 21]: 30 | Plant response rating, Ragweed [2, 22]: 80 | Plant response rating, Ragweed [2, 23]: 80 | Plant response rating, Ducksalad (0 to 100 scale, 0 is no effect, 100 is complete control) [3]: 80 | Plant response rating, Morningglory [4, 14]: 20 | Plant response rating, Morningglory [4, 15]: 50 | Plant response rating, Foxtail, Giant [5, 12]: 90 | Foxtail, Giant plant response rating [5, 13]: 90 | Plant response rating, Foxtail, Giant [5, 14]: 100 | Plant response rating, Foxtail, Giant [5, 15]: 100 | Plant response rating, Velvetleaf [6, 16]: 60 | Plant response rating, Velvetleaf [6, 17]: 75 | Plant response rating, Velvetleaf [6, 18]: 80 | Plant response rating, Velvetleaf [6, 19]: 90 | Plant response rating, Velvetleaf [6, 20]: 80 | Plant response rating, Velvetleaf [6, 21]: 100 | Plant response rating, Velvetleaf [6, 22]: 100 | Plant response rating, Velvetleaf [6, 23]: 100 | Plant response rating, Nutsedge, Yellow [7, 16]: 10 | Plant response rating, Nutsedge, Yellow [7, 17]: 10 | Plant response rating, Nutsedge, Yellow [7, 18]: 15 | Plant response rating, Nutsedge, Yellow [7, 19]: 20 | Plant response rating, Nutsedge, Yellow [7, 20]: 0 | Plant response rating, Nutsedge, Yellow [7, 21]: 0 | Plant response rating, Nutsedge, Yellow [7, 22]: 5 | Plant response rating, Nutsedge, Yellow [7, 23]: 5 | Plant response rating, Soybean [8, 16]: 30 | Plant response rating, Soybean [8, 17]: 35 | Plant response rating, Soybean [8, 18]: 60 | Plant response rating, Soybean [8, 19]: 60 | Plant response rating, Soybean [8, 20]: 5 | Plant response rating, Soybean [8, 21]: 10 | Plant response rating, Soybean [8, 22]: 10 | Plant response rating, Soybean [8, 23]: 35 | Plant response rating, Kochia [9, 24]: 90 | Plant response rating, Kochia [9, 25]: 90 | Plant response rating, Kochia [9, 26]: 90 | Plant response rating, Kochia [9, 27]: 90 | Plant response rating, Sedge, Umbrella (0 to 100 scale, 0 is no effect, 100 is complete control) [10]: 85 | Plant response rating, Barnyardgrass [11, 28]: 75 | Plant response rating, Barnyardgrass [11, 29]: 100 | Plant response rating, Barnyardgrass [11, 26]: 100

CCc1nn(-c2ccc(C(F)(F)F)cc2)nc1Oc1ccnc(C(F)(F)F)c1 [Compound 169]
Plant response rating, Crabgrass, Large [1, 12]: 90 | Crabgrass, Large plant response rating [1, 13]: 90 | Plant response rating, Crabgrass, Large [1, 14]: 100 | Plant response rating, Crabgrass, Large [1, 15]: 100 | Plant response rating, Ragweed [2, 16]: 40 | Plant response rating, Ragweed [2, 17]: 60 | Plant response rating, Ragweed [2, 18]: 85 | Plant response rating, Ragweed [2, 19]: 95 | Plant response rating, Ragweed [2, 20]: 15 | Plant response rating, Ragweed [2, 21]: 15 | Plant response rating, Ragweed [2, 22]: 30 | Plant response rating, Ragweed [2, 23]: 65 | Plant response rating, Ducksalad (0 to 100 scale, 0 is no effect, 100 is complete control) [3]: 85 | Plant response rating, Morningglory [4, 14]: 20 | Plant response rating, Morningglory [4, 15]: 40 | Plant response rating, Foxtail, Giant [5, 12]: 80 | Foxtail, Giant plant response rating [5, 13]: 90 | Plant response rating, Foxtail, Giant [5, 14]: 100 | Plant response rating, Foxtail, Giant [5, 15]: 100 | Plant response rating, Velvetleaf [6, 16]: 50 | Plant response rating, Velvetleaf [6, 17]: 65 | Plant response rating, Velvetleaf [6, 18]: 75 | Plant response rating, Velvetleaf [6, 19]: 80 | Plant response rating, Velvetleaf [6, 20]: 50 | Plant response rating, Velvetleaf [6, 21]: 75 | Plant response rating, Velvetleaf [6, 22]: 75 | Plant response rating, Velvetleaf [6, 23]: 100 | Plant response rating, Nutsedge, Yellow [7, 16]: 5 | Plant response rating, Nutsedge, Yellow [7, 17]: 5 | Plant response rating, Nutsedge, Yellow [7, 18]: 10 | Plant response rating, Nutsedge, Yellow [7, 19]: 10 | Plant response rating, Nutsedge, Yellow [7, 20]: 0 | Plant response rating, Nutsedge, Yellow [7, 21]: 5 | Plant response rating, Nutsedge, Yellow [7, 22]: 5 | Plant response rating, Nutsedge, Yellow [7, 23]: 5 | Plant response rating, Soybean [8, 16]: 30 | Plant response rating, Soybean [8, 17]: 30 | Plant response rating, Soybean [8, 18]: 50 | Plant response rating, Soybean [8, 19]: 55 | Plant response rating, Soybean [8, 20]: 0 | Plant response rating, Soybean [8, 21]: 5 | Plant response rating, Soybean [8, 22]: 10 | Plant response rating, Soybean [8, 23]: 30 | Plant response rating, Kochia [9, 24]: 85 | Plant response rating, Kochia [9, 25]: 90 | Plant response rating, Kochia [9, 26]: 90 | Plant response rating, Kochia [9, 27]: 90 | Plant response rating, Sedge, Umbrella (0 to 100 scale, 0 is no effect, 100 is complete control) [10]: 85 | Plant response rating, Barnyardgrass [11, 28]: 40 | Plant response rating, Barnyardgrass [11, 29]: 80 | Plant response rating, Barnyardgrass [11, 26]: 98

CCCc1nn(-c2ccc(C(F)(F)F)cc2)nc1Oc1ccnc(C(F)(F)F)c1 [Compound 170]
Plant response rating, Crabgrass, Large [1, 12]: 100 | Crabgrass, Large plant response rating [1, 13]: 100 | Plant response rating, Crabgrass, Large [1, 14]: 100 | Plant response rating, Crabgrass, Large [1, 15]: 100 | Plant response rating, Ragweed [2, 16]: 85 | Plant response rating, Ragweed [2, 17]: 85 | Plant response rating, Ragweed [2, 18]: 90 | Plant response rating, Ragweed [2, 19]: 90 | Plant response rating, Ragweed [2, 20]: 5 | Plant response rating, Ragweed [2, 21]: 60 | Plant response rating, Ragweed [2, 22]: 75 | Plant response rating, Ragweed [2, 23]: 95 | Plant response rating, Ducksalad (0 to 100 scale, 0 is no effect, 100 is complete control) [3]: 35 | Plant response rating, Morningglory [4, 12]: 100 | Morningglory plant response rating [4, 13]: 100 | Plant response rating, Morningglory [4, 14]: 70 | Plant response rating, Morningglory [4, 15]: 90 | Plant response rating, Foxtail, Giant [5, 12]: 90 | Foxtail, Giant plant response rating [5, 13]: 90 | Plant response rating, Foxtail, Giant [5, 14]: 100 | Plant response rating, Foxtail, Giant [5, 15]: 100 | Plant response rating, Velvetleaf [6, 16]: 75 | Plant response rating, Velvetleaf [6, 17]: 85 | Plant response rating, Velvetleaf [6, 18]: 85 | Plant response rating, Velvetleaf [6, 19]: 90 | Plant response rating, Velvetleaf [6, 20]: 60 | Plant response rating, Velvetleaf [6, 21]: 100 | Plant response rating, Velvetleaf [6, 22]: 100 | Plant response rating, Velvetleaf [6, 23]: 100 | Plant response rating, Nutsedge, Yellow [7, 16]: 5 | Plant response rating, Nutsedge, Yellow [7, 17]: 5 | Plant response rating, Nutsedge, Yellow [7, 18]: 5 | Plant response rating, Nutsedge, Yellow [7, 19]: 10 | Plant response rating, Nutsedge, Yellow [7, 20]: 0 | Plant response rating, Nutsedge, Yellow [7, 21]: 5 | Plant response rating, Nutsedge, Yellow [7, 23]: 5 | Plant response rating, Soybean [8, 16]: 30 | Plant response rating, Soybean [8, 17]: 70 | Plant response rating, Soybean [8, 18]: 90 | Plant response rating, Soybean [8, 20]: 5 | Plant response rating, Soybean [8, 21]: 5 | Plant response rating, Soybean [8, 22]: 20 | Plant response rating, Soybean [8, 23]: 45 | Plant response rating, Kochia [9, 24]: 90 | Plant response rating, Kochia [9, 25]: 90 | Plant response rating, Kochia [9, 26]: 90 | Plant response rating, Kochia [9, 27]: 90 | Plant response rating, Sedge, Umbrella (0 to 100 scale, 0 is no effect, 100 is complete control) [10]: 90 | Plant response rating, Barnyardgrass [11, 28]: 80 | Plant response rating, Barnyardgrass [11, 29]: 98 | Plant response rating, Barnyardgrass [11, 26]: 100
